Measured values: PMC7708446, “^18F-meta-fluorobenzylguanidine (^18F-mFBG) to monitor changes in norepinephrine transporter expression in response to therapeutic intervention in neuroblastoma models” (Scientific Reports, 2020)
Marks after values point to notes of the source that are not given here.

System: SK-N-BE(2)C xenografts
Assay: Ex vivo biodistribution (γ-counter), mice bearing SK-N-BE(2)C xenografts
Type: in vivo
Conditions: SK-N-BE(2)C
Experimental: All studies were conducted in compliance with licenses issued under the UK Animals (Scientific Procedures) Act 1986 and approved by the Institute of Cancer Research Animal Welfare and Ethical Review Body (AWERB) according to the United Kingdom National Cancer Research Institute Guidelines for Animal Welfare in Cancer Research (project license PCC916B22, Animals in Science Regulation Unit, Home Office Science, London, UK)[65]. Female Nu(NCr)-Foxn1nu mice (5–7 weeks; 20–22 g) obtained from an in-house breeding colony were used in the studies. Animals were housed in a temperature-controlled facility with 12 h on–12 h off light cycle and provided water and laboratory rodent food ad libitum. Subcutaneous xenografts were generated by injection of either Kelly (5 × 10^6/0.1 mL PBS/Matrigel 30% v/v; BD Matrigel Matrix, BD Bioscience, San Jose, California, US) or SK-N-BE(2)C (1 × 10^6/0.1 mL PBS/Matrigel) into the lower flank. For the treatment studies, AZD2014 stock solution in DMSO was diluted in PEG400 to a final concentration of 2 mg/mL (10% DMSO maximum). When tumours reached ~ 100 mm^3 (calliper measurements using formula: Volume = (Width(2) × Length)/2), mice were treated daily, for a total of either 1, 3 or 7 days, by oral gavage with AZD2014 (20 or 25 mg/kg/day) or vehicle control. Mice were monitored daily for body weight or other adverse effects.
When the tumours reached approximately 100–200 mm^3, mice were anaesthetised with an isoflurane/O2 mixture (1.5–2.0% v/v) and intravenously injected with either ^18F-mFBG (~ 7.5 MBq) or ^123I-mIBG (~ 20 MBq). Mice were then imaged using an Albira PET/SPECT/CT scanner (Bruker, Coventry, UK). Whole body PET static images were acquired after 1 and 4 h post-injection (p.i.) for 10 min with an energy window of 358 to 664 keV followed by CT acquisition. Acquisition, reconstruction and image analysis were performed as described previously. Following the final scan, the mice were sacrificed and the major organs were excised, weighed and their associated radioactivity was measured using a γ-counter. Biodistribution and image quantification were expressed as a percentage of injected dose per gram of tissue (%ID/g), whereby 1 cm^3 on PET acquisitions were assumed to equal 1 g (n ≥ 3 mice ± SD).

N=C(N)NCc1cccc([18F])c1 [^18F-mFBG, ^18F-meta-fluorobenzylguanidine]
^18F-mFBG biodistribution 4 h p.i., Tumour (1 day AZD2014 (20 mg/kg/day)): 3.29 ± 1.01 %ID/g
^18F-mFBG biodistribution 4 h p.i., Tumour:blood (1 day AZD2014 (20 mg/kg/day)): 17.72 ± 2.35
^18F-mFBG biodistribution 4 h p.i., Tumour:muscle (1 day AZD2014 (20 mg/kg/day)): 5.74 ± 1.77
^18F-mFBG biodistribution 4 h p.i., Blood (1 day vehicle): 0.18 ± 0.02 %ID/g
^18F-mFBG biodistribution 4 h p.i., Bone (1 day vehicle): 4.98 ± 2.18^c %ID/g
^18F-mFBG biodistribution 4 h p.i., Brown adipose (1 day vehicle): 5.14 ± 0.38^b %ID/g
^18F-mFBG biodistribution 4 h p.i., Heart (1 day vehicle): 4.38 ± 1.68 %ID/g
^18F-mFBG biodistribution 4 h p.i., Kidney (1 day vehicle): 0.79 ± 0.36 %ID/g
^18F-mFBG biodistribution 4 h p.i., Liver (1 day vehicle): 1.94 ± 0.30 %ID/g
^18F-mFBG biodistribution 4 h p.i., Lungs (1 day vehicle): 1.22 ± 0.37 %ID/g
^18F-mFBG biodistribution 4 h p.i., Muscle (1 day vehicle): 0.60 ± 0.13 %ID/g
^18F-mFBG biodistribution 4 h p.i., Pancreas (1 day vehicle): 1.01 ± 0.18 %ID/g
^18F-mFBG biodistribution 4 h p.i., Small intestine (1 day vehicle): 4.50 ± 0.24^b %ID/g
^18F-mFBG biodistribution 4 h p.i., Spleen (1 day vehicle): 3.19 ± 0.63 %ID/g
^18F-mFBG biodistribution 4 h p.i., Tumour (1 day vehicle): 2.76 ± 1.14 %ID/g
^18F-mFBG biodistribution 4 h p.i., Tumour:blood (1 day vehicle): 15.27 ± 5.32
^18F-mFBG biodistribution 4 h p.i., Tumour:muscle (1 day vehicle): 4.44 ± 0.94
^18F-mFBG biodistribution 4 h p.i., Blood (3 day vehicle): 0.18 ± 0.08 %ID/g
^18F-mFBG biodistribution 4 h p.i., Bone (3 day vehicle): 1.64 ± 0.45 %ID/g
^18F-mFBG biodistribution 4 h p.i., Brown adipose (3 day vehicle): 5.15 ± 0.78^b %ID/g
^18F-mFBG biodistribution 4 h p.i., Heart (3 day vehicle): 3.64 ± 0.89 %ID/g
^18F-mFBG biodistribution 4 h p.i., Kidney (3 day vehicle): 1.13 ± 0.47 %ID/g
^18F-mFBG biodistribution 4 h p.i., Liver (3 day vehicle): 1.96 ± 0.02 %ID/g
^18F-mFBG biodistribution 4 h p.i., Lungs (3 day vehicle): 1.15 ± 0.23 %ID/g
^18F-mFBG biodistribution 4 h p.i., Muscle (3 day vehicle): 0.53 ± 0.19 %ID/g
^18F-mFBG biodistribution 4 h p.i., Pancreas (3 day vehicle): 1.25 ± 0.51 %ID/g
^18F-mFBG biodistribution 4 h p.i., Small intestine (3 day vehicle): 5.32 ± 0.11 %ID/g
^18F-mFBG biodistribution 4 h p.i., Spleen (3 day vehicle): 2.08 ± 1.29 %ID/g
^18F-mFBG biodistribution 4 h p.i., Tumour (3 day vehicle): 2.39 ± 0.10 %ID/g
^18F-mFBG biodistribution 4 h p.i., Tumour:blood (3 day vehicle): 14.47 ± 4.61
^18F-mFBG biodistribution 4 h p.i., Tumour:muscle (3 day vehicle): 4.89 ± 1.48
^18F-mFBG biodistribution 4 h p.i., Blood (7 day AZD2014 (20 mg/kg/day)): 0.32 ± 0.14 %ID/g
^18F-mFBG biodistribution 4 h p.i., Bone (7 day AZD2014 (20 mg/kg/day)): 0.63 ± 0.54 %ID/g
^18F-mFBG biodistribution 4 h p.i., Brown adipose (7 day AZD2014 (20 mg/kg/day)): 8.08 ± 0.72 %ID/g
^18F-mFBG biodistribution 4 h p.i., Heart (7 day AZD2014 (20 mg/kg/day)): 4.17 ± 1.63 %ID/g
^18F-mFBG biodistribution 4 h p.i., Kidney (7 day AZD2014 (20 mg/kg/day)): 1.02 ± 0.15 %ID/g
^18F-mFBG biodistribution 4 h p.i., Liver (7 day AZD2014 (20 mg/kg/day)): 2.64 ± 0.46 %ID/g
^18F-mFBG biodistribution 4 h p.i., Lungs (7 day AZD2014 (20 mg/kg/day)): 1.33 ± 0.36 %ID/g
^18F-mFBG biodistribution 4 h p.i., Muscle (7 day AZD2014 (20 mg/kg/day)): 0.75 ± 0.02 %ID/g
^18F-mFBG biodistribution 4 h p.i., Pancreas (7 day AZD2014 (20 mg/kg/day)): 3.08 ± 1.80 %ID/g
^18F-mFBG biodistribution 4 h p.i., Small intestine (7 day AZD2014 (20 mg/kg/day)): 6.87 ± 1.86 %ID/g
^18F-mFBG biodistribution 4 h p.i., Spleen (7 day AZD2014 (20 mg/kg/day)): 1.64 ± 0.46 %ID/g
^18F-mFBG biodistribution 4 h p.i., Tumour (7 day AZD2014 (20 mg/kg/day)): 2.61 ± 1.19 %ID/g
^18F-mFBG biodistribution 4 h p.i., Tumour:blood (7 day AZD2014 (20 mg/kg/day)): 8.06 ± 2.57
^18F-mFBG biodistribution 4 h p.i., Tumour:muscle (7 day AZD2014 (20 mg/kg/day)): 3.50 ± 1.62
^18F-mFBG biodistribution 4 h p.i., Blood (7 day vehicle): 0.17 ± 0.06 %ID/g
^18F-mFBG biodistribution 4 h p.i., Bone (7 day vehicle): 1.13 ± 0.20 %ID/g
^18F-mFBG biodistribution 4 h p.i., Brown adipose (7 day vehicle): 6.08 ± 2.45 %ID/g
^18F-mFBG biodistribution 4 h p.i., Heart (7 day vehicle): 5.87 ± 2.80 %ID/g
^18F-mFBG biodistribution 4 h p.i., Kidney (7 day vehicle): 1.09 ± 0.16 %ID/g
^18F-mFBG biodistribution 4 h p.i., Liver (7 day vehicle): 2.15 ± 0.30 %ID/g
^18F-mFBG biodistribution 4 h p.i., Lungs (7 day vehicle): 1.86 ± 0.64 %ID/g
^18F-mFBG biodistribution 4 h p.i., Muscle (7 day vehicle): 0.67 ± 0.07 %ID/g
^18F-mFBG biodistribution 4 h p.i., Pancreas (7 day vehicle): 2.81 ± 1.72 %ID/g
^18F-mFBG biodistribution 4 h p.i., Small intestine (7 day vehicle): 6.22 ± 0.35 %ID/g
^18F-mFBG biodistribution 4 h p.i., Spleen (7 day vehicle): 1.75 ± 0.67 %ID/g
^18F-mFBG biodistribution 4 h p.i., Tumour (7 day vehicle): 2.17 ± 1.01 %ID/g
^18F-mFBG biodistribution 4 h p.i., Tumour:blood (7 day vehicle): 15.55 ± 13.55
^18F-mFBG biodistribution 4 h p.i., Tumour:muscle (7 day vehicle): 3.36 ± 1.90
